Like-named read-outs stand apart in the source and are kept apart here.
Tests used:
patients with PFIC = test: Bilirubin, MARCH-ON long-term extension; assay type: in vivo, human; details: MRX-MRX group; Baseline through Week 52
Source text: Eighty-five patients from MARCH trial enrolled in MARCH-ON (Table 10, FIG. 29A). Forty-seven patients had received Maralixibat (MRX-MRX) and 38 had received placebo (PBO-MRX) during MARCH trial.
PFIC subtypes of patients included in the study were: non-truncated bile salt export pump (nt-B SEP, n=27), familial intrahepatic cholestasis-associated protein type 1 (F1C1, n=13); multidrug-resistance 3 protein (MDR3, n=9); tight junction protein 2 (TJP2, n=6); myosin VB (MYO5B, n=2); heterozygosis (n=2); truncated B SEP (t-B SEP, n=9); variant not found (n=8), fluctuating sBA (n=2); and surgery (n=7). Efficacy analyses included n=33 in the MRX-MRX group and n=24 in the PRO-MRX group. Subtypes nt-BSEP, F1C1, MDR3, TJP2, and MYO5B were included in the efficacy analyses. Baseline was defined as the start of maralixibat (MRX) treatment for each group.
Methods: Long-term maintenance of response was assessed for patients who were originally randomized to receive MRX in MARCH and continued with treatment in MARCH-ON (MRX-MRX group; n=33). MRX response was assessed for patients who received PBO in the MARCH study and switched to open-label MRX in MARCH-ON (PBO-MRX group; n=24). Assessments included: pruritus measured by 0-4 scale of ItchRO[Obs], sBA, bilirubin, and growth z-scores, as well as incidence of treatment-emergent adverse events(TEAEs). […]

[1] = test system: participants with PFIC 1 or PFIC 2; details: cited from earlier work
participants with ALGS = test: sBA in participants with ALGS aged 16 years and older; assay type: in vivo, human
Procedure: All patients received the daily dose appropriate for their weight, with an adult maximum dose of 28.5 mg/d. ^bBefore age 16 years is defined as the last data point prior to turning 16 years of age. After age 16 years is defined as the first data point after turning 16 years of age.
FIGS. 31A and 31B show a change in ltchRO(Obs) (FIG. 31A) and sBA (FIG. 31B) for participants who initiated MRX treatment at <16 years of age (n=11). Of 11 participants, 9 had ItchRO(Obs) scores available for all time points and were included in the analysis. ^bItchRO(Obs) is a 0-4 scale with >1-point reduction considered clinically meaningful. Mean ItchRO(Obs) was rounded to 1 decimal place. Error bars represent SE. Significance was determined using student t test. ^cMean sBA was rounded to the nearest whole number. Error bars represent SE. ^dAverage of last 2 records prior to age 16 years. ^eAverage of first 2 records after age 16 years. ^fAverage of final 2 records.
FIGS. 32A and 32B show a change in ltchRO(Obs) (FIG. 32A) and sBA (FIG. 32B) for participants who Initiated MRX treatment at ≥16 years of age (n=3). ^aItchRO(Obs) is 0-4 scale with ≥1-point reduction considered clinically meaningful. ^bAverage of final two records.
The efficacy and safety of MRX in participants with ALGS aged ≥16 years transitioning to adult care and participant aged ≥16 years who initiate MRX treatment were studied (FIG. 30). […]

subjects with PFIC = test: Total serum bile acid (sBA) level, MARCH-PFIC Phase 3 study; assay type: in vivo, human; details: for percentage of sBA response (sBA responders): Week 18 to Week 26
Procedure: Serum bile acids and other cholestasis biomarkers. Blood samples were collected as described in Table 1 to measure levels of cholestasis biomarkers including total sBA, sBA subspecies, C4, FGF-19, and autotaxin as well as liver related parameters. Subjects were encouraged to fast at least 6 hours prior to collection (water intake was permitted if necessary but not recommended). Total sBA and targeted bile acid subspecies were quantified with liquid chromatography mass spectrometry (LC-MS) methodology for exploratory assessments. In addition, screening total sBA will be assessed with an enzymatic assay for inclusion criteria evaluation. C4, a key intermediate in the pathway for bile acid synthesis from cholesterol, will be determined by a validated LC-MS/MS method. The secondary efficacy endpoints are defined as Mean change in total serum bile acid (sBA) level between baseline and average of Weeks 18, 22, and 26 (FIGS. 11-12); 2) Percentage of ItchRO(Obs) responders from Week 15 to Week 26 (FIGS. 13A and 14A); 3) Percentage of sBA responders from Week 18 to Week 26 (FIGS. 13B and 14B). Pruritus responders are defined as a subject having a 4-week average morning ItchRO (Obs) severity change from baseline of […] OR an average severity score of ≤1.0. For the purpose of determining response, the average severity score from the three 4-week periods (weeks 15-18, 19-22 and 23-26) are used. A subject is defined as an ItchRO non-responder if the 4-week average baseline score is missing OR all three 4-week average (post-baseline) scores are missing. sBA responders are defined as a subject having an average sBA level of <102 μmon (applies only if baseline sBA was ≥102 μmon) OR a ≤−75% average percent change from baseline. For the purpose of determining response, the average sBA value from Weeks 18, 22 and 26 values are used. A subject is defined as an sBA non-responder if the baseline sBA value is missing OR sBA values are missing at all 3 time points (i.e., Weeks 18, 22, and 26). p-values comparing maralixibat to placebo treatment groups are calculated using Barnard's exact test.

[2] = All PFIC cohort, average of Weeks 18, 22, 26, FIG. 11B
[3] = BSEP deficiency cohort, average of Weeks 18, 22, 26, FIG. 11A

Which results are given for `CCCCC1(CCCC)CS(=O)(=O)c2ccc(N(C)C)cc2[C@@H](c2ccc(OCc3ccc(C[N+]45CCN(CC4)CC5)cc3)cc2)[C@H]1O` [maralixibat, 1-(4-((4-((4R,5R)-3,3-dibutyl-7-(dimethylamino)-4-hydroxy-1,1-dioxido-2,3,4,5-tetrahydrobenzo[b]thiepin-5-yl)phenoxy)methyl)benzyl)-1,4-diazabicyclo[2.2.2]octan-1-ium]?
bilirubin, change from Baseline (patients with PFIC): -2.64 mg/dL; response in Indigo Phase 2 study ([1]; participants with PFIC 2): had a response; response in Indigo Phase 2 study ([1]; patients with PFIC 1): did not have a response; improvements in sBA (participants with ALGS; MRX during childhood, maintained into early adulthood, FIG. 31B): significant improvements; improvements in sBA (participants with ALGS; participants receiving MRX in early adulthood, FIG. 32B): significant improvements; reduction of sBA levels (mean change from baseline) (subjects with PFIC; [2]): over 150 μmon; sBA difference from placebo (subjects with PFIC; [2]): 160.403 μmon; percentage of sBA response (sBA responders) (subjects with PFIC; BSEP deficiency cohort, FIG. 13B): 35.7%; reduction of sBA levels (mean change from baseline) (subjects with PFIC; [3]): ~200 µmol/L; sBA difference from placebo (subjects with PFIC; [3]): 186.723 µmol/L; improvements in serum bile acid levels (subjects with PFIC; FIC1, MDR3, TJP2, MYO5B cohorts, FIG. 34A-B): Significant improvements; reduction of sBA levels (mean change from baseline) (subjects with PFIC; FIC1 cohort, FIG. 12A): ~100 µmol/L; sBA difference from placebo (subjects with PFIC; FIC1 cohort, FIG. 12A): 126.382 µmol/L; percentage of sBA response (sBA responders) (subjects with PFIC; FIG. 14B, sentence prints BSEP deficiency cohort): 45.5%; reduction of sBA levels (mean change from baseline) (subjects with PFIC; MDR3 cohort, FIG. 12B): 150 μmon; sBA difference from placebo (subjects with PFIC; MDR3 cohort, FIG. 12B): 135.089 μmon; sBA levels lower at each time point (change from baseline over time) (subjects with PFIC; Week 2 to Week 26, BSEP deficiency group, PFIC group, all study participants, FIG. 15A-C): more than 100 μmon; improvements in serum bile acid levels (subjects with PFIC; full-study population, FIG. 35B): statistically significant and clinically meaningful improvements; improvements in serum bile acid levels (subjects with PFIC; patients with no-variant found, FIG. 35D): demonstrated improvements

Source: patent publication US20240173317A1, “METHODS FOR TREATING PROGRESSIVE FAMILIAL INTRAHEPATIC CHOLESTASIS” (MIRUM PHARMACEUTICALS, INC., priority 2022, published 2024)
